Data on 1 molecule can be found in ChEMBL document CHEMBL4808180, “Identification of 2,2-Dimethylbutanoic Acid (HST5040), a Clinical Development Candidate for the Treatment of Propionic Acidemia and Methylmalonic Acidemia” (J Med Chem, 2021).

Each structure is given as a SMILES string. pEC50: −log10 of the molar value. Activity calls are given as the source filed them. No cut-off for these calls is given here. Where only a bound is given, the exact number is not on record here.

Data set [1] is described as follows: Half life in CD1 mouse at 30 mg/kg, po. To be noted: in vivo. Format: ADME, organism-based.
The nature of data set [2]: Reduction of CoASH in human hepatocytes at 30 uM pretreated for 30 mins followed by 13C-isoleucine addition and measured after 1 hr by MS/MS analysis relative to control. It counts as functional, Hepatocyte. Details: scale not given: the % may be the effect or the level left. To be noted: time 90 min, 1.5 h.
A short description of data set [3]: Volume of distribution of CD1 mouse at 30 mg/kg, iv. Format: ADME, organism-based. Conditions: in vivo.
The nature of data set [4]: Drug metabolism in Gottingen minipig urine assessed as HST5040-glycine metabolite formation at 10 mg/kg administered as single dose by LC/MS analysis. To be noted: pig, in vivo. Format: ADME, organism-based, Sus scrofa domesticus.
The nature of data set [5]: Drug metabolism in Gottingen minipig plasma assessed as HST5040-glucuronide metabolite formation at 10 mg/kg administered as single dose by LC/MS analysis. Format: ADME, organism-based, Sus scrofa domesticus. To be noted: pig, in vivo.
A further data set concerns the target T1, Cytochrome P450 2B6 (Homo sapiens, UniProt P20813).
T1 sequence (P20813 whole entry): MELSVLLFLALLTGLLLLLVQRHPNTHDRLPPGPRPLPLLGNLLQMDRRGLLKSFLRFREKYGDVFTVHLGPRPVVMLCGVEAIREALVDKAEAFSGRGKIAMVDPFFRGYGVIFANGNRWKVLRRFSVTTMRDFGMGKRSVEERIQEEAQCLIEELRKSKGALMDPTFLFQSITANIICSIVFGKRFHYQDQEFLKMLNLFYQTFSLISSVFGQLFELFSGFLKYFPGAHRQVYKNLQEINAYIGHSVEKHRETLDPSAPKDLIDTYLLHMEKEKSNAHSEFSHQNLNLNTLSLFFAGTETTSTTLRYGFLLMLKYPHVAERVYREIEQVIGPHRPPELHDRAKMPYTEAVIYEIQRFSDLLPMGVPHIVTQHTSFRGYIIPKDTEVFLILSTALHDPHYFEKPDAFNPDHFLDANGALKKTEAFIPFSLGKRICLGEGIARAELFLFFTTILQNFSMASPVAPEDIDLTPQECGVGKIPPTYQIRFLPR
Briefly: Time-dependent inhibition of CYP2B6 in human liver microsomes using bupropion as substrate preincubated for 30 mins. It counts as ADME.

The target of data set [6] is T2, Broad substrate specificity ATP-binding cassette transporter ABCG2 (Homo sapiens, UniProt Q9UNQ0).
T2 sequence (Q9UNQ0 whole entry): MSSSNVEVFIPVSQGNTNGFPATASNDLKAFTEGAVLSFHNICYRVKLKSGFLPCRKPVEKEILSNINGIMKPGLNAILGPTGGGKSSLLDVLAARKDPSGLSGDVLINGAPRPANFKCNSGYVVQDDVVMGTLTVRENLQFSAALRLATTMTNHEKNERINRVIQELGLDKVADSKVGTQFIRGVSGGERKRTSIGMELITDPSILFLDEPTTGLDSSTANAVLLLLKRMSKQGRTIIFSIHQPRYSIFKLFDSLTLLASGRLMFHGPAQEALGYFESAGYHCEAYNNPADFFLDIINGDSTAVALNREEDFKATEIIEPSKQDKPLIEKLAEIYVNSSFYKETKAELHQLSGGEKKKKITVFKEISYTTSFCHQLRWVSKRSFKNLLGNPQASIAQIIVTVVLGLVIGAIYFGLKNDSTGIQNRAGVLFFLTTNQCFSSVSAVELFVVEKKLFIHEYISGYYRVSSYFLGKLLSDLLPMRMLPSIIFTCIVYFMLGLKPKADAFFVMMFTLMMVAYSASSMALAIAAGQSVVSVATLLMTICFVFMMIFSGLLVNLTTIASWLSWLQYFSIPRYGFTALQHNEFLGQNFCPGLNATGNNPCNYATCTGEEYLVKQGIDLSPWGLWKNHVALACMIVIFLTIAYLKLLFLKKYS
Briefly: Inhibition of human BCRP assessed as reduction in E3S transport at 24000 uM relative to control.

The target in the next data set is T3, OATP1B3 (Homo sapiens, UniProt Q9NPD5).
T3 sequence (Q9NPD5 whole entry): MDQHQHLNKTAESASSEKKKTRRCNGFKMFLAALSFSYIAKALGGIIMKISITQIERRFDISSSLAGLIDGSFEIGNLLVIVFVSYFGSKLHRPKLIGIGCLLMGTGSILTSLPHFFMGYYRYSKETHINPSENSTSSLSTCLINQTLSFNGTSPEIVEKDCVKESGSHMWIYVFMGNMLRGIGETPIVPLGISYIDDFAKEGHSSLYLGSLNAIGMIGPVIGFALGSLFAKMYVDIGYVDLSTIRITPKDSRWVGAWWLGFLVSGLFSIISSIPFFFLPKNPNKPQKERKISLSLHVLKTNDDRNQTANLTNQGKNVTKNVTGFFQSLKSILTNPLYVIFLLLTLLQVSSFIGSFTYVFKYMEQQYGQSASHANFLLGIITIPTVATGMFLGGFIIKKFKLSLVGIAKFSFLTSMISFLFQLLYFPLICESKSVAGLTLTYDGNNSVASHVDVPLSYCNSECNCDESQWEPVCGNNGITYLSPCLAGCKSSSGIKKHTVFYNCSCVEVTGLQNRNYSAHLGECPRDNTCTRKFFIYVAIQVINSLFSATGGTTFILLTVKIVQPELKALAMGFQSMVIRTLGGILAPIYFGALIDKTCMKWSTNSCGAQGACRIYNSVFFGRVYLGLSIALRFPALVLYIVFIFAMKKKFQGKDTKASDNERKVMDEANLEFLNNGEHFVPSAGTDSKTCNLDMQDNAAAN
Briefly: Inhibition of human OATP1B3 assessed as reduction in OATP1B3-mediated E217betaG transport at 14900 uM relative to control. Conditions: not told, probe E217betaG.

Data set [7] can be described thus: Half life in CD1 mouse at 100 mg/kg, po. It counts as ADME, organism-based. To be noted: in vivo.
Data set [8] addresses Solute carrier family 22 member 2 (Homo sapiens) (UniProt O15244). Briefly: Inhibition of human OCT2 assessed as reduction in OCT2-mediated metformin transport at 14900 uM relative to control.
Data set [9] is described as follows: Drug level in Gottingen minipig blood at 10 mg/kg, po using radiolabeled compound measured after 96 hrs by quantitative whole-body autoradiography. Format: ADME, organism-based, Sus scrofa domesticus. To be noted: pig, in vivo, BLD = below limit of detection.
A short description of data set [10]: Drug metabolism in human hepatocytes derived from methylmalonic acidemia patient assessed as formation of 2,2-dimethylbutanoic acid-CoA pretreated for 30 mins followed by 13C-isoleucine addition and measured after 1 hr by MS/MS analysis relative to control. Conditions: Hepatocyte. Format: ADME, cell-based.
A short description of data set [11]: Reduction of propionyl carnitine in human hepatocytes derived from methylmalonic acidemia patient at 30 uM pretreated for 30 mins followed by 13C-isoleucine addition and measured after 1 hr by MS/MS analysis relative to control. Format: functional, Hepatocyte. Details: scale not given: the % may be the effect or the level left. Conditions: time 90 min, 1.5 h.

A short description of data set [12]: Reduction of propionyl-CoA in human hepatocytes derived from methylmalonic acidemia at 30 uM pretreated for 30 mins followed by 13C-isoleucine addition and measured after 1 hr by MS/MS analysis relative to control. It counts as functional, Hepatocyte. Further details: scale not given: the % may be the effect or the level left. To be noted: time 90 min, 1.5 h.

Data set [13] can be described thus: Drug level in Gottingen minipig blood at 10 mg/kg, po using radiolabeled compound measured after 72 hrs by quantitative whole-body autoradiography. To be noted: pig, in vivo, BLD = below limit of detection. It counts as ADME, organism-based, Sus scrofa domesticus.
Data set [14] is described as follows: Drug metabolism in Sprague-Dawley rat feces assessed as HST5040-carnitine metabolite formation at 10 mg/kg administered as single dose by LC/MS analysis. Format: ADME, organism-based. Conditions: in vivo.
Data set [15] in a line: Tmax in CD1 mouse at 30 mg/kg, po. To be noted: in vivo. Format: ADME, organism-based.

Solute carrier family 22 member 2 (Homo sapiens), sequence (O15244 whole entry, looked up): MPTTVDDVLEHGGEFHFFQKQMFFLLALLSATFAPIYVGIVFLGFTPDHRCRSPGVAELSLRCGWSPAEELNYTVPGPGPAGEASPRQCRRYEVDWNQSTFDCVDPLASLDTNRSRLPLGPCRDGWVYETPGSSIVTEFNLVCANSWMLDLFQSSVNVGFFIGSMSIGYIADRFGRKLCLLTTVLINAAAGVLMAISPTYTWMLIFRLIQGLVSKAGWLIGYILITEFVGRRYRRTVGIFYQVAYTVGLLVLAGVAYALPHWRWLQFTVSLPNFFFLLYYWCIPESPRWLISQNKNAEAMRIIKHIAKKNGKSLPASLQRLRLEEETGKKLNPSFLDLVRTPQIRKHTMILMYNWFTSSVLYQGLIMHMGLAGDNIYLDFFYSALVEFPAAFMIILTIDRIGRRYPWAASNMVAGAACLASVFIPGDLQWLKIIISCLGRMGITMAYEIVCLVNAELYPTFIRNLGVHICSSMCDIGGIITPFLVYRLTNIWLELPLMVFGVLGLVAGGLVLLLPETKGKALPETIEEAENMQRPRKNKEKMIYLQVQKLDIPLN

Take `CCC(C)(C)C(=O)O` [DIMEBUTIC ACID]: the half-life in data set [1] is 35.4 min; in data set [7] it was 65.4 min. Further, the Activity in data set [2] was -35.2%; in [11] it was -65.9%; in data set [12], -74.2%. The molecule further displayed a Vd in data set [3] of 0.469 L/kg. For the same molecule, the Drug metabolism entry in data set [4], in data set [5] and in data set [14] was “Metabolite_Detected” each time. The same molecule yielded a half-inhibitory concentration (IC50) against Cytochrome P450 2B6 of over 10000 µM. The “inhibition (INH)” value in data set [6] is “Not Active”. The inhibition at 14900 µM at OATP1B3 came out at 31.5%. Moreover, the inhibition result in [8] is “inactive”. Also, the Drug uptake result in data set [9] and in data set [13] was “Bld” in each case. In data set [10], the pEC50 is 5.46. In addition, in data set [15], the Tmax is 26.3 min.
